According to PubChem BioAssay AID651630 (Sanford-Burnham Center for Chemical Genomics, 2012):
Calls of active or inactive are those of the source.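 Rule for the calls: active = lipid-stain IC50 at or below a set limit, with nuclear-stain toxicity IC50 at least five times higher; inactive = the rest.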

Tests used:
DAPI = assay: TAG lipid buildup inhibition with viability readout – cell-based, panel, Nile Red and DAPI fluorescence, H9c2, dose response (AID 651630); conditions: H9c2 cells, DAPI nuclear fluorescence (cytotoxicity counter-readout), oleic acid;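 note: cells exposed to compound overnight before fixation and staining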
TAG = assay: as above; conditions: H9c2 cells, Nile Red TAG fluorescence, oleic acid

| Compound | IC50 cytotoxicity (DAPI nuclear signal decrease) (DAPI; mean of runs) | IC50 cytotoxicity (DAPI nuclear signal decrease) (DAPI; run 1) [µM] | IC50 cytotoxicity (DAPI nuclear signal decrease) (DAPI; run 2) [µM] | IC50 (TAG; mean of runs) | IC50 (TAG; run 1) [µM] | IC50 (TAG; run 2) [µM] |
| --- | --- | --- | --- | --- | --- | --- |
| CC(=O)Nc1ccc(-c2ccnc3c2CC(C(=O)NCc2cccc(Cl)c2)O3)cc1 (centres undefined) | > 25 µM (inactive) | > 25 | > 25 | 13.3 µM | 15.9 | 10.7 |
| COc1cccc2sc(Nc3nc(-c4cc5ccccc5oc4=O)cs3)nc12 | > 25 µM (inactive) | > 25 | > 25 | 8.35 µM | 7.33 | 9.37 |
| Cc1ccc(CN(C(=O)c2csnn2)C(C(=O)NC2CCCC2)c2ccc(C)o2)cc1 (centres undefined) | > 25 µM (inactive) | > 25 | > 25 | > 25 µM (inactive) | > 25 | > 25 |
| Brc1ccc(-c2csc(NNC3=NCCCCC3)n2)cc1 | – | 21.6 | > 25 | 1.85 µM | 1.55 | 2.15 |
| Nc1c(Cl)cc(-c2csc(N3CCCC3c3nc4cc(Cl)c(N5CCCCC5)cc4n3CCCO)n2)cc1Cl (centres undefined) | 15.6 µM (inactive) | 14.5 | 16.6 | 3.56 µM | 2.87 | 4.26 |
| O=C(Nc1ccc(-c2csc(Nc3ccccc3)n2)cc1)c1cccc(C(F)(F)F)c1 | > 25 µM (inactive) | > 25 | > 25 | – | 15.3 | > 25 |
| Cc1ccc2c(=O)n3c(nc2c1)C(Cc1ccc(O)cc1)NC(=O)c1cc2ccccc2cc1-3 (centres undefined) | > 25 µM (inactive) | > 25 | > 25 | > 25 µM (inactive) | > 25 | > 25 |
| CCC[C@@H](CN[C@@H](CNC)[C@H](C)CC)NCC1CCC(C(C)(C)C)CC1 (some centres undefined) | – | > 25 | 24 | > 25 µM (inactive) | > 25 | > 25 |
| Fc1cccc(Nc2nc(-c3ccncc3)nc3ccccc23)c1 | > 25 µM (inactive) | > 25 | > 25 | > 25 µM (inactive) | > 25 | > 25 |
| Cc1ccc(CNC(=O)c2ccc(N3CCC4(CC3)CC(c3ccccc3)=NO4)c(NC(=O)c3ccc(Br)cc3)c2)cc1 | – | > 25 | > 25 | 4.43 µM | 3.68 | 5.18 |
| CCc1ccc(-c2nc(C(N)=O)c3[nH]c(=O)n(-c4ccccc4OC)c3n2)cc1 | – | > 25 | > 25 | 2.73 µM | 2.74 | 2.71 |
| COc1ccccc1Nc1nnc(SCC(=O)Nc2nc(-c3ccc(F)cc3)cs2)s1 | > 25 µM (inactive) | > 25 | > 25 | > 25 µM (inactive) | > 25 | > 25 |
| O=C(Cc1coc2ccc3ccccc3c12)Nc1nccs1 | > 25 µM (inactive) | > 25 | > 25 | > 25 µM (inactive) | > 25 | > 25 |
| CCCCCc1cc(=O)oc2c(C(CCN3CCCC3)c3cc(OC)c(OC)c(OC)c3)c(OC)cc(OC)c12 (centres undefined) | 20.2 µM (inactive) | 20.1 | 20.2 | – | > 25 | 17.4 |
| COc1ccccc1NC1=NC(c2ccc(Cl)cc2)N=C(N)N1 (centres undefined) | > 25 µM (inactive) | > 25 | > 25 | > 25 µM (inactive) | > 25 | > 25 |
| OCCCn1c(C2CCCN2c2nc(-c3ccc(Cl)cc3)cs2)nc2cc(Cl)c(N3CCCCC3)cc21 (centres undefined) | > 25 µM (inactive) | > 25 | > 25 | – | 24.6 | > 25 |
| O=C(Nc1ccccc1N1CCCCC1)c1ncoc1-c1ccc(F)cc1 | > 25 µM (inactive) | > 25 | > 25 | > 25 µM (inactive) | > 25 | > 25 |

| Compound | IC50 cytotoxicity (DAPI nuclear signal decrease) (DAPI; mean of runs) | IC50 cytotoxicity (DAPI nuclear signal decrease) (DAPI; run 1) [µM] | IC50 cytotoxicity (DAPI nuclear signal decrease) (DAPI; run 2) [µM] | IC50 (TAG; mean of runs) | IC50 (TAG; run 1) [µM] | IC50 (TAG; run 2) [µM] |
| --- | --- | --- | --- | --- | --- | --- |
| O=C(CSc1cccc2cccnc12)Nc1ccc(S(=O)(=O)N2CCOCC2)cc1 | > 25 µM (inactive) | > 25 | > 25 | > 25 µM (inactive) | > 25 | > 25 |
| COc1cc2c3c(c1)c(C1=NC(=S)NC1=O)c(O)n3C(C)(C)C=C2C | > 25 µM (inactive) | > 25 | > 25 | 6 µM | 6.7 | 5.3 |
| COc1cc(-c2cc3nc(NCCOc4ccccc4)ccn3n2)cc(OC)c1OC | > 25 µM (inactive) | > 25 | > 25 | 18.9 µM (inactive) | 16.7 | 21.2 |
| CCCCN(C)C(=O)c1ccc(Nc2nc(C(N)Cc3ccc(C(F)(F)F)cc3)cs2)nc1 (centres undefined) | > 25 µM (inactive) | > 25 | > 25 | > 25 µM (inactive) | > 25 | > 25 |
| C#CCN(C[C@H]1[C@H](OC(=O)NCC2CCCCC2)[C@H](OC(=O)NCC2CCCCC2)C[C@@H](C(=O)OC)[C@H]1C(=O)OC)S(=O)(=O)c1ccc(C)cc1 | – | > 25 | > 25 | 4.93 µM | 4.53 | 5.33 |
| CCOC(=O)[C@H]1[C@H]2COc3ccc(C)cc3[C@@H]2N2C(=O)c3cc(Br)ccc3NC(=O)[C@@]12C | > 25 µM (inactive) | > 25 | > 25 | 21.6 µM (inactive) | 22.2 | 21 |
| CN(C)c1ncnc2c1ncn2C1OC(CO)C(O)C1O (centres undefined) | 12.8 µM (inactive) | 11 | 14.5 | > 25 µM (inactive) | > 25 | > 25 |
| Cc1cccc(-c2ccc3[nH]c4c(c3c2)CCN2C[C@@H]([C@H](C)OC(=O)Nc3ccccc3C)[C@@H](N(C)C(=O)Nc3ccccc3C)C[C@@H]42)c1 | > 25 µM (inactive) | > 25 | > 25 | 15.6 µM (inactive) | 15.5 | 15.6 |
| COc1ccc(NC(=O)C2(C)Cc3c(-c4ccc5c(c4)OCO5)ccnc3O2)cn1 (centres undefined) | > 25 µM (inactive) | > 25 | > 25 | > 25 µM (inactive) | > 25 | > 25 |
| Nc1ccccc1Nc1cccc(C(F)(F)F)c1 | > 25 µM (inactive) | > 25 | > 25 | 11.2 µM | 9.51 | 12.9 |
| Cc1ccc(/C=N/NC(=O)Cc2c[nH]c3ccccc23)c(C)c1 | > 25 µM (inactive) | > 25 | > 25 | – | 19.8 | > 25 |
| Cc1cccn2c(=O)c3cc(C(=O)NC4CCCC4)c(=N)n(C4CCCC4)c3nc12 | > 25 µM (inactive) | > 25 | > 25 | 11.9 µM | 8.07 | 15.8 |
| COc1cc(OC)c2c(-c3ccccc3)cc(=O)oc2c1C(CCN1CCN(c2ccccc2)CC1)c1ccc(N(C)C)cc1 (centres undefined) | > 25 µM (inactive) | > 25 | > 25 | 6.35 µM | 6.75 | 5.95 |
| COc1ccc(OC)c(N(CCN2C(=O)c3ccccc3C2=O)C(=O)CCl)c1 | > 25 µM (inactive) | > 25 | > 25 | > 25 µM (inactive) | > 25 | > 25 |
| COC(=O)[C@@]1(Cc2ccccc2)[C@H]2C(=O)N(Cc3ccccc3)C(=O)[C@H]2[C@H]2CN=C(SCc3ccc(Cl)cc3)N21 | > 25 µM (inactive) | > 25 | > 25 | 9.75 µM | 10.4 | 9.1 |
| COc1cccc(C2c3c(C)nn(-c4ccc([N+](=O)[O-])cc4)c3N=C3C(=O)Nc4ccccc4N32)c1 (centres undefined) | > 25 µM (inactive) | > 25 | > 25 | 7.79 µM | 7.32 | 8.26 |
| COc1ccc(-c2nc3ccc(Cl)cn3c2NC2CCCCC2)cc1SC1CCCCC1 | – | > 25 | > 25 | 3.44 µM | 2.41 | 4.47 |
